6 compounds from patent US20150141336A1, “Pancreatic Peptide Compounds and Use” (Novo Nordisk A/S, priority 2012, published 2015) can be followed below.

Numbered stars: 1 amine (or outer) side, 2 acyl side, 3 side chain; on linkers, the order of the positions; unused ones are H or OH. Side chains are listed from the residue outwards. Peptide text beside a SMILES is read from it. * marks the point of attachment. C18 diacid = O=C(O)CCCCCCCCCCCCCCCCC(=O)*; γGlu = O=C(O)[C@H](CCC(=O)[*:2])N[*:1]; AEEA = NCCOCCOCC(=O)O

The data set can be described thus: Assay (II) PK i.v. minipig, in vivo half-life. As to conditions: male, Göttingen, minipig, iv, Half-life minipig, Assay (II). Set-up: species or system Göttingen mini-pigs. As for the experimental part:
An assay useful for measuring the pharmacokinetic (PK) profile of the PP peptide is the following mini-pig PK assay.
Five male Göttingen mini-pigs weighing approximately 18 to 22 kg from Ellegaard Göttingen Minipigs NS, Denmark are included in the study. The mini-pigs have two central venous catheters inserted which are used for intra venous (i.v.) dosing and blood sampling. The test compound is dissolved in 50 mM K2HPO4, 0.05% tween 80, pH=8.0 to a concentration of 180 nmol/ml. For comparison a control compound, such as human PP(1-36), may be administered. The pigs are dosed with 6 nmol test compound/kg body weight. Blood samples are taken at the following time points: pre-dose, 30 minutes, 1, 2, 4, 8, 24, 48, 72, 96, 120, 168 and 240 hours post dosing. The blood samples were collected into test tubes containing EDTA buffer for stabilization and kept on ice for max. 20 minutes before centrifugation. The centrifugation procedure to separate plasma may be: 4° C., approx. 2500 g for 10 minutes. Plasma is collected and immediately transferred to Micronic tubes stored at −20° C. until assayed.
The test compounds were assayed in plasma by Turbulent Flow Chromatography coupled to Liquid Chromatography with subsequent Tandem Mass Spectrometric Detection (TFC/LC/MS/MS). Positive mode ionization and Multiple Reaction Monitoring (MRM) of a multiple protonated species fragmented to a singly charged ion was employed for selectivity. The selectivity of the method allows multiple compounds to be quantified in one sample.
The concentrations of the test compound in samples of unknown concentration were calculated using the peak area as a function of amount. Calibration graphs based on plasma samples spiked with the analyte were constructed by regression analysis. Typical dynamic range for standard assay was 1-2000 nmol/I. The method performance was assured by co-assaying quality control (QC) samples in duplicate at three concentration levels.
Stock and working solutions of analytes were prepared in plasma and incubated by 37° C. for 1 hour.
Sample Preparation: 40.0 μl EDTA-plasma was added 160 μl 50% methanol, 1% formic acid, then vortexed and centrifuged at 16457 g at 4° C. for 20 minutes. The supernatant was transferred to a 96 well plate, plates incubated with 0.4% BSA, 37° C. for ½ hour. Injection volume was 25 μl.
The analysis was carried out on a Sciex API 3000 mass spectrometer (MDS/Sciex, Concord, ON, Canada) using a TurbolonSpray interface. The TFC/LC system consisted of two Flux Rheos 2000 quaternary pumps, a Cohesive VIM module (Cohesive Technologies, Franklin, Mass., USA) and a CTC LC/PAL auto sampler (CTC Analytics, Zingen, Switzerland). The centrifuge employed was a HettichMikro 22R (A. Hettich, Tuttlingen, Germany). For sample clean up a TurboFlow C8 column (0.5×50 mm) (Cohesive Technologies/Thermofisher) was used and the LC separation was done on a Proteo 4 μm column (2.0×50 mm) (Phenomenex, Torrance, Calif., USA). Eluents were isocratic and gradient combinations of methanol, acetonitril, Milli-Q water and formic acid.
Non-compartmental analysis (NCA): Plasma concentration-time profiles are analyzed by non-compartmental pharmacokinetics analysis (NCA) using WinNonlin Professional 5.0 (Pharsight Inc., Mountain View, Calif., USA). NCA is performed using the individual plasma concentration-time profiles from each animal.
For `CC[C@H](C)[C@H](NC(=O)[C@H](Cc1ccc(O)cc1)NC(=O)[C@H](CCCNC(=N)N)NC(=O)[C@H](CCCNC(=N)N)NC(=O)[C@H](CC(C)C)NC(=O)[C@H](CC(=O)O)NC(=O)[C@H](C)NC(=O)[C@H](C)NC(=O)[C@H](Cc1ccc(O)cc1)NC(=O)[C@H](CCC(N)=O)NC(=O)[C@H](C)NC(=O)[C@H](CCSC)NC(=O)[C@H](CCC(N)=O)NC(=O)[C@H](CCC(=O)O)NC(=O)[C@@H]1CCCN1C(=O)[C@@H](NC(=O)[C@H](CCCCNC(=O)COCCOCCNC(=O)COCCOCCNC(=O)CC[C@H](NC(=O)CCCCCCCCCCCCCCCCC(=O)O)C(=O)O)NC(=O)[C@H](CC(N)=O)NC(=O)[C@H](CC(=O)O)NC(=O)CNC(=O)[C@@H]1CCCN1C(=O)[C@H](Cc1ccc(O)cc1)NC(=O)[C@@H](NC(=O)[C@@H]1CCCN1C(=O)[C@H](CCC(=O)O)NC(=O)[C@@H](N)CC(C)C)C(C)C)[C@@H](C)O)C(=O)N[C@@H](CC(N)=O)C(=O)N[C@@H](CCSC)C(=O)N[C@@H](CC(C)C)C(=O)N[C@H](C(=O)N[C@@H](CCCNC(=N)N)C(=O)N1CCC[C@H]1C(=O)N[C@@H](CCCNC(=N)N)C(=O)N[C@@H](Cc1ccc(O)cc1)C(N)=O)[C@@H](C)O` [Compound BD], the half-life (in general, the time needed for the level to fall by half in the phase considered) was 17 h.
To `CC[C@H](C)[C@H](NC(=O)[C@H](Cc1ccc(O)cc1)NC(=O)[C@H](CCCNC(=N)N)NC(=O)[C@H](CCCNC(=N)N)NC(=O)[C@H](CC(C)C)NC(=O)[C@H](CC(=O)O)NC(=O)[C@H](C)NC(=O)[C@H](CCCCNC(=O)COCCOCCNC(=O)COCCOCCNC(=O)CC[C@H](NC(=O)CCCCCCCCCCCCCCCCC(=O)O)C(=O)O)NC(=O)[C@H](Cc1ccc(O)cc1)NC(=O)[C@H](CCC(N)=O)NC(=O)[C@H](C)NC(=O)[C@H](CCSC)NC(=O)[C@H](CCC(N)=O)NC(=O)[C@H](CCC(=O)O)NC(=O)[C@@H]1CCCN1C(=O)[C@@H](NC(=O)[C@H](C)NC(=O)[C@H](CC(N)=O)NC(=O)[C@H](CC(=O)O)NC(=O)CNC(=O)[C@@H]1CCCN1C(=O)[C@H](Cc1ccc(O)cc1)NC(=O)[C@@H](NC(=O)[C@@H]1CCCN1C(=O)[C@H](CCC(=O)O)NC(=O)[C@H](CC(C)C)NC(=O)[C@@H]1CCCN1)C(C)C)[C@@H](C)O)C(=O)N[C@@H](CC(N)=O)C(=O)N[C@@H](CCSC)C(=O)N[C@@H](CC(C)C)C(=O)N[C@H](C(=O)N[C@@H](CCCNC(=N)N)C(=O)N1CCC[C@H]1C(=O)N[C@@H](CCCNC(=N)N)C(=O)N[C@@H](Cc1ccc(O)cc1)C(N)=O)[C@@H](C)O` [Compound M] (H-PLEPVYPGDNATPEQMAQYK([AEEA-AEEA-γGlu-C18 diacid])ADLRRYINMLTRPRY-NH2; N-terminus and C-terminus assumed) belongs 77 h.
Turning to `CC[C@H](C)[C@H](NC(=O)[C@H](Cc1ccc(O)cc1)NC(=O)[C@H](CCCNC(=N)N)NC(=O)[C@H](CCCNC(=N)N)NC(=O)[C@H](CC(C)C)NC(=O)[C@H](CC(=O)O)NC(=O)[C@H](C)NC(=O)[C@H](C)NC(=O)[C@H](Cc1ccc(O)cc1)NC(=O)[C@H](CCC(N)=O)NC(=O)[C@H](C)NC(=O)[C@H](CCSC)NC(=O)[C@H](CCC(N)=O)NC(=O)[C@H](CCCCNC(=O)COCCOCCNC(=O)COCCOCCNC(=O)CC[C@H](NC(=O)CCCCCCCCCCCCCCCCC(=O)O)C(=O)O)NC(=O)[C@@H]1CCCN1C(=O)[C@@H](NC(=O)[C@H](C)NC(=O)[C@H](CC(N)=O)NC(=O)[C@H](CC(=O)O)NC(=O)CNC(=O)[C@@H]1CCCN1C(=O)[C@H](Cc1ccc(O)cc1)NC(=O)[C@@H](NC(=O)[C@@H]1CCCN1C(=O)[C@H](CCC(=O)O)NC(=O)[C@@H](N)CC(C)C)C(C)C)[C@@H](C)O)C(=O)N[C@@H](CC(N)=O)C(=O)N[C@@H](CCSC)C(=O)N[C@@H](CC(C)C)C(=O)N[C@H](C(=O)N[C@@H](CCCNC(=N)N)C(=O)N1CCC[C@H]1C(=O)N[C@@H](CCCNC(=N)N)C(=O)N[C@@H](Cc1ccc(O)cc1)C(N)=O)[C@@H](C)O` [Compound BA] (H-LEPVYPGDNATPK([AEEA-AEEA-γGlu-C18 diacid])QMAQYAADLRRYINMLTRPRY-NH2; N-terminus and C-terminus assumed), the half-life was 24 h.
The same measure for `CC[C@H](C)[C@H](NC(=O)[C@H](Cc1ccc(O)cc1)NC(=O)[C@H](CCCNC(=N)N)NC(=O)[C@H](CCCNC(=N)N)NC(=O)[C@H](CC(C)C)NC(=O)[C@H](CC(=O)O)NC(=O)[C@H](C)NC(=O)[C@H](C)NC(=O)[C@H](Cc1ccc(O)cc1)NC(=O)[C@H](CCC(N)=O)NC(=O)[C@H](C)NC(=O)[C@H](CCSC)NC(=O)[C@H](CCC(N)=O)NC(=O)[C@H](CCC(=O)O)NC(=O)[C@@H]1CCCN1C(=O)[C@@H](NC(=O)[C@H](C)NC(=O)[C@H](CC(N)=O)NC(=O)[C@H](CCCCNC(=O)COCCOCCNC(=O)COCCOCCNC(=O)CC[C@H](NC(=O)CCCCCCCCCCCCCCCCC(=O)O)C(=O)O)NC(=O)CNC(=O)[C@@H]1CCCN1C(=O)[C@H](Cc1ccc(O)cc1)NC(=O)[C@@H](NC(=O)[C@@H]1CCCN1C(=O)[C@H](CCC(=O)O)NC(=O)[C@@H](N)CC(C)C)C(C)C)[C@@H](C)O)C(=O)N[C@@H](CC(N)=O)C(=O)N[C@@H](CCSC)C(=O)N[C@@H](CC(C)C)C(=O)N[C@H](C(=O)N[C@@H](CCCNC(=N)N)C(=O)N1CCC[C@H]1C(=O)N[C@@H](CCCNC(=N)N)C(=O)N[C@@H](Cc1ccc(O)cc1)C(N)=O)[C@@H](C)O` [Compound BF]: 17 h; for `CC[C@H](C)[C@H](NC(=O)[C@H](Cc1ccc(O)cc1)NC(=O)[C@H](CCCNC(=N)N)NC(=O)[C@H](CCCNC(=N)N)NC(=O)[C@H](CC(C)C)NC(=O)[C@H](CC(=O)O)NC(=O)[C@H](C)NC(=O)[C@H](C)NC(=O)[C@H](Cc1ccc(O)cc1)NC(=O)[C@H](CCC(N)=O)NC(=O)[C@H](C)NC(=O)[C@H](CCSC)NC(=O)[C@H](CCC(N)=O)NC(=O)[C@H](CCC(=O)O)NC(=O)[C@@H]1CCCN1C(=O)[C@@H](NC(=O)[C@H](CCCCNC(=O)COCCOCCNC(=O)COCCOCCNC(=O)CC[C@H](NC(=O)CCCCCCCCCCCCCCCCC(=O)O)C(=O)O)NC(=O)[C@H](CC(N)=O)NC(=O)[C@H](CC(=O)O)NC(=O)CNC(=O)[C@@H]1CCCN1C(=O)[C@H](Cc1ccc(O)cc1)NC(=O)[C@@H](NC(=O)[C@@H]1CCCN1C(=O)[C@H](CCC(=O)O)NC(=O)[C@H](CC(C)C)NC(=O)[C@@H]1CCCN1)C(C)C)[C@@H](C)O)C(=O)N[C@@H](CC(N)=O)C(=O)N[C@@H](CCSC)C(=O)N[C@@H](CC(C)C)C(=O)N[C@H](C(=O)N[C@@H](CCCNC(=N)N)C(=O)N1CCC[C@H]1C(=O)N[C@@H](CCCNC(=N)N)C(=O)N[C@@H](Cc1ccc(O)cc1)C(N)=O)[C@@H](C)O` [Compound V]: 36 h.
`CC[C@H](C)[C@H](NC(=O)[C@H](Cc1ccc(O)cc1)NC(=O)[C@H](CCCNC(=N)N)NC(=O)[C@H](CCCNC(=N)N)NC(=O)[C@H](CC(C)C)NC(=O)[C@H](CC(=O)O)NC(=O)[C@H](C)NC(=O)[C@H](C)NC(=O)[C@H](Cc1ccc(O)cc1)NC(=O)[C@H](CCCCNC(=O)COCCOCCNC(=O)COCCOCCNC(=O)CC[C@H](NC(=O)CCCCCCCCCCCCCCCCC(=O)O)C(=O)O)NC(=O)[C@H](C)NC(=O)[C@H](CCSC)NC(=O)[C@H](CCC(N)=O)NC(=O)[C@H](CCC(=O)O)NC(=O)[C@@H]1CCCN1C(=O)[C@@H](NC(=O)[C@H](C)NC(=O)[C@H](CC(N)=O)NC(=O)[C@H](CC(=O)O)NC(=O)CNC(=O)[C@@H]1CCCN1C(=O)[C@H](Cc1ccc(O)cc1)NC(=O)[C@@H](NC(=O)[C@@H]1CCCN1C(=O)[C@H](CCC(=O)O)NC(=O)[C@@H](N)CC(C)C)C(C)C)[C@@H](C)O)C(=O)N[C@@H](CC(N)=O)C(=O)N[C@@H](CCSC)C(=O)N[C@@H](CC(C)C)C(=O)N[C@H](C(=O)N[C@@H](CCCNC(=N)N)C(=O)N1CCC[C@H]1C(=O)N[C@@H](CCCNC(=N)N)C(=O)N[C@@H](Cc1ccc(O)cc1)C(N)=O)[C@@H](C)O` [Compound AW] (H-LEPVYPGDNATPEQMAK([AEEA-AEEA-γGlu-C18 diacid])YAADLRRYINMLTRPRY-NH2; N-terminus and C-terminus assumed): the half-life is 33 h.
